Each block holds one compound with its values, some of them ahead of it.
Experiments:
[1] = Rat pharmacokinetic study; format: in vivo; conditions: SD rats, IV 0.3 mg/kg
Method: Sprague Dawley (SD) rats (n=3/group) were administered either compound (1) or compound (2) orally at 10 mg/kg (5% ethanol, 5% VE-TPGS, 90% PEG400) or intravenously at 0.3 mg/kg (5% NMP, 95% PEG400). The resulting individual and mean plasma concentration-time was measured for the free acid, compound (2), with the data provided in Tables 4-7.

[2] = biological target: T1, human recombinant CB2 receptor (Homo sapiens, UniProt P34972); experiment: CB2 radioligand binding assay
T1 construct: expressed in transfected cells; host or cells: CHO cells (membrane homogenates)
Method: (§1) The binding affinity (% inhibition, K) of each of Compounds (1) and (2) for the CB1 and CB2 receptors was determined by a competitive radioligand binding assay. […] By comparison, no binding of the free acid to either the CB1 or CB2 receptors was observed (FIG. 5). The radioligand binding assays were performed as described below.
CB2 Radioligand Binding Assay: Cell membrane homogenates (12 μg protein) prepared from CHO cells expressing human recombinant CB2 receptor were incubated for 120 min at 37° C. with 0.8 nM [^3H]WIN 55212-2 (CB1/CB2 radioligand) in the absence or presence of the test compound in a buffer containing 50 mM Hepes/Tris (pH 7.4), 5 mM MgCl2, 2.5 mM EGTA and 0.1% BSA. Nonspecific binding was determined in the presence of 5 μM WIN 55212-2. Each compound was tested in 8 concentrations. For each concentration, % Inhibition was determined as a function of radioligand specific binding to the CB2 receptor. The K was determined from the concentration-response curve of each tested compound.
(§2) Further details for determining the binding affinity of compounds for a cannabinoid receptor by competitive radioligand binding can be found in the literature, for example, in Rinaldi-Carmona M, et al. Characterization of two cloned human CB1 cannabinoid receptors isoform. […]

[3] = biological target: T2, human recombinant CB1 receptor (Homo sapiens, UniProt P21554); experiment: CB1 radioligand binding assay
T2 construct: expressed in transfected cells; host or cells: Chem cells (membrane homogenates)
Method: as §1
CB1 Radioligand Binding Assay: Cell membrane homogenates (5 μg protein) prepared from Chem cells expressing human recombinant CB1 receptor were incubated for 30 min at 22° C. with 2 nM [^3H]CP 55940 (CB1/CB2 radioligand) in the absence or presence of the test compound in a buffer containing 50 mM Tris-HCl (pH 7.4), 5 mM MgCl2, 2.5 mM EDTA and 0.3% BSA. Nonspecific binding is determined in the presence of 10 μM WIN 55212-2. Each compound was tested in 8 concentrations. For each concentration, % Inhibition was determined as a function of radioligand specific binding to the CB1 receptor. The K was determined from the concentration-response curve of each tested compound.
as §2

Human Mϕ = experiment: Human macrophage phagocytosis of live E. coli; format: cell-based; conditions: BacLight Green-labeled E. coli, fluorescence
Method: Human Mϕ were plated onto chamber slides (0.1×10^6 cells/well), incubated with RvD1, compound (10 nM), or vehicle alone for 15 min at 37° C., followed by addition of BacLight Green-labeled E. coli to initiate phagocytosis. Fluorescent images were then recorded every 10 min for 120 min (37° C.) using Keyence BZ-9000 (BIOREVO) inverted fluorescence phase-contrast microscope (40× objective) equipped with a monochrome/color switching camera using BZ-II Viewer software (Keyence, Itasca, Ill., USA). Green fluorescence intensity was quantified using BZ-II Analyzer. Results are recordings of mean fluorescence intensity (MFI) from one representative donor (FIG. 6). Human Mϕ were plated onto 96-well plates (5×10^4 cells/well), incubated with RvD1, compound (1 pM-100 nM) or vehicle alone for 15 min at 37° C., followed by addition of BacLight Green-labeled E. coli (E. coli:Mϕ=50:1) to initiate phagocytosis. One hour later, fluorescence associated with Mϕ was determined using a microplate reader. Results are expressed as percent increase above vehicle (E. coli alone); mean from 4 separate experiments (FIG. 7).

[4] = biological target: T3, human ALX/FPR2 (LXA4 Receptor) (Homo sapiens, UniProt P25090); experiment: Beta-Arrestin PathHunter ALX/FPR2 activation assay; format: cell-based; conditions: HEK-ALX cells, 1 h at 37° C., chemiluminescence
T3 construct: host or cells: HEK cells (HEK-ALX)
T3 sequence (P25090 1-351): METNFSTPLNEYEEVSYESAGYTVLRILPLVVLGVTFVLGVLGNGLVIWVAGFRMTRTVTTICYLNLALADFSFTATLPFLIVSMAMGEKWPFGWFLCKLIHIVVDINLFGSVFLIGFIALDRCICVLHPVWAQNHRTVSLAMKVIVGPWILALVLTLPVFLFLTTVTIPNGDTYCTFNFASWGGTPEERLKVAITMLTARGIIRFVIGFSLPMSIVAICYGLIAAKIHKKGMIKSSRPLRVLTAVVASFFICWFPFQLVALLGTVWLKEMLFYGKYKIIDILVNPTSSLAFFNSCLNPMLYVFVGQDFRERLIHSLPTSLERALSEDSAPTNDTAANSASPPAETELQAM
Method: (§3) Ligand receptor interactions were monitored using the Beta-Arrestin PathHunter eXpress System™ (DiscoverX, Fremont, Calif.) and carried out with HEK cells stably overexpressing recombinant human ALX receptors. HEK-ALX cells were plated onto 96-well plates 24 h prior to experiments. Test compounds at indicated concentrations were incubated with cells for 1 h at 37° C. and receptor activation was determined by measuring chemiluminescence using the PathHunter detection kit. Results are expressed as % increase of chemiluminescence above vehicle control (FIG. 3). Results are mean from 3 or 4 independent experiments and 3 replicates in each experiment.

PMN = PMN clearance in vivo, E. coli initiated peritonitis; set-up: species or system mouse
Method: FVB mice (male, 6 wks old) were inoculated with E. coli (10^5 CFU). […] Total leukocytes were enumerated using light microscopy and PMN numbers were determined by flow cytometry. […] Resolution indices were calculated using PMN numbers.

[5] = biological target: T4, human GPR32 (RvD1 Receptor) (Homo sapiens, UniProt O75388); experiment: Beta-Arrestin PathHunter GPR32 activation assay; format: cell-based; conditions: CHO-GPR32 cells, 1 h at 37° C., chemiluminescence
T4 construct: host or cells: CHO cells (CHO-GPR32)
Method: as §3, with “with CHO” for “with HEK”, “human GPR32” for “human ALX”, “receptors. CHO-GPR32” for “receptors. HEK-ALX”, “kit. The results of this experiment” for “kit. Results”, “(FIG. 2).” for “(FIG. 3).”

peritoneal lavage cells = experiment: Cell count in mouse peritonitis model (zymosan); format: in vivo
[6] = FVB mice, 100 ng i.p. 12 h after inoculation
[7] = 24 h post-zymosan, 0.1 μg/mouse

T2 sequence (P21554 whole entry): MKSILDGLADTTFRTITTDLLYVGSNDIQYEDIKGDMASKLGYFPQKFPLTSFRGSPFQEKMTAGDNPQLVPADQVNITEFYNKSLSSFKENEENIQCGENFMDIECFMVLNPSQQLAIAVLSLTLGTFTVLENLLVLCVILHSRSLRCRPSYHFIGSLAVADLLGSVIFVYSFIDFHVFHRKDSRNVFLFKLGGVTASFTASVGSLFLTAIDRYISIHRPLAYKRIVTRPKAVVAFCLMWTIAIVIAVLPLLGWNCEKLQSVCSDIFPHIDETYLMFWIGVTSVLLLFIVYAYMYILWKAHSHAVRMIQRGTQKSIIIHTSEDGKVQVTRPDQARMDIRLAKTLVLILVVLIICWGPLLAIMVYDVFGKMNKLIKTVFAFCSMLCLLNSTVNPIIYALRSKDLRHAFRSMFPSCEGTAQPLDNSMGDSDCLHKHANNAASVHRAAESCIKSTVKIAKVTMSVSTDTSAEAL
T1 sequence (P34972 whole entry): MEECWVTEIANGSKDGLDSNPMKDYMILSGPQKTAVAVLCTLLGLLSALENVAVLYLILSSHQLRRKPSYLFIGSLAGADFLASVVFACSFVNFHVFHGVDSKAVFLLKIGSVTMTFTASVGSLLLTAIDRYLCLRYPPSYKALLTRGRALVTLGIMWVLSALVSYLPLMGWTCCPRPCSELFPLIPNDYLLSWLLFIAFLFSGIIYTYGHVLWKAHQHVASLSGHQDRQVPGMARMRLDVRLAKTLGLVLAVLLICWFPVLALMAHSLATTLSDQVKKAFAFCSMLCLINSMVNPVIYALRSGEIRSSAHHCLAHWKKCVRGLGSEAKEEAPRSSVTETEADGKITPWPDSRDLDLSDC
T4 sequence (O75388 whole entry): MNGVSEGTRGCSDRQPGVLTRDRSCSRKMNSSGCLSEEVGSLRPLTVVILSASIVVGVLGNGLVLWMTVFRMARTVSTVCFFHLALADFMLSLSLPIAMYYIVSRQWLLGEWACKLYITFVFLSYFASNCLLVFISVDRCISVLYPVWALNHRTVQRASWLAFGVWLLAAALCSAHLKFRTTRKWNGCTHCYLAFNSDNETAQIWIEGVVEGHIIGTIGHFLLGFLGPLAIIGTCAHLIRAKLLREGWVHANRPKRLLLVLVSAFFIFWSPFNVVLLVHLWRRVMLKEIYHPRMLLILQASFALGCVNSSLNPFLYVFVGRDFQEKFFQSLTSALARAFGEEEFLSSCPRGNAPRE

plasma Concentration of compound (2), Individual ([1]; 8 hr, 0.3 mg/kg): BQL | plasma Concentration of compound (2), Individual ([1]; 12 hr, 0.3 mg/kg): BQL | plasma Concentration of compound (2), Individual ([1]; 24 hr): BQL | plasma Concentration of compound (2), Mean ([1]; 24 hr): BQL | Ki ([2]; [3H]WIN 55212-2 competition, read-out: K (binding affinity) CB2 receptor): 0.63 µM | Ki ([3]; [3H]CP 55940 competition, read-out: K (binding affinity) CB1 receptor): > 5 µM | activation of human ALX/FPR2 (LXA4 Receptor) [4]: activates | activation of human GPR32 (RvD1 Receptor) [5]: activates
SMILES: O=C1COC[C@@H]([C@H](O)/C=C/C=C/C#C/C=C/[C@H](O)COc2ccc(F)cc2)O1 [Compound (1), (S)-6-((1R,2E,4E,8E,10S)-11-(4-fluorophenoxy)-1,10-dihydroxyundeca-2,4,8-trien-6-yn-1-yl)-1,4-dioxan-2-one]
human macrophage phagocytosis of live E. coli (Human Mϕ): enhances | Resolution Interval (PMN; [6]): 11 h | T50 (PMN; [6]): 23 h | Tmax (PMN; [6]): 12 h | reduction of Tmax (PMN; vs E. coli alone): 50% | Estimated PMNs (peritoneal lavage cells; 3 h post-zymosan, 0.1 μg/mouse): 5977.50 10^3/ml | Granulocytes Counted (100 cells) (peritoneal lavage cells; 3 h post-zymosan, 0.1 μg/mouse): 96.4 | Mononuclear Counted (100 cells) (peritoneal lavage cells; 3 h post-zymosan, 0.1 μg/mouse): 3.6 | Nucleated Cells (peritoneal lavage cells; 3 h post-zymosan, 0.1 μg/mouse): 6165.00 10^3/ml | Estimated PMNs (peritoneal lavage cells; 3 h post-zymosan, 10 μg/mouse): *4012.13 10^3/ml | Granulocytes Counted (100 cells) (peritoneal lavage cells; 3 h post-zymosan, 10 μg/mouse): 95.0 | Mononuclear Counted (100 cells) (peritoneal lavage cells; 3 h post-zymosan, 10 μg/mouse): 5.0 | Nucleated Cells (peritoneal lavage cells; 3 h post-zymosan, 10 μg/mouse): *4237.50 10^3/ml | Estimated PMNs (peritoneal lavage cells; [7]): 14672.70 10^3/ml | Granulocytes Counted (100 cells) (peritoneal lavage cells; [7]): 88.8 | Mononuclear Counted (100 cells) (peritoneal lavage cells; [7]): 11.2 | Nucleated Cells (peritoneal lavage cells; [7]): 16380.00 10^3/ml

plasma Concentration of compound (2), Individual ([1]; 12 hr, 0.3 mg/kg): BQL | plasma Concentration of compound (2), Individual ([1]; 24 hr): BQL | plasma Concentration of compound (2), Mean ([1]; 24 hr): BQL | binding to CB2 receptor ([2]; radioligand binding): no binding | binding to CB1 receptor ([3]; radioligand binding): no binding
SMILES: O=C(O)COC[C@H](O)[C@H](O)/C=C/C=C/C#C/C=C/[C@H](O)COc1ccc(F)cc1 [Compound (2), 2-(((2S,3R,4E,6E,10E,12S)-13-(4-fluorophenoxy)-2,3,12-trihydroxytrideca-4,6,10-trien-8-yn-1-yl)oxy)acetic acid, reference compound]

SMILES: CC/C=C\C[C@H](O)/C=C/C=C\C=C\C=C\[C@@H](O)[C@@H](O)C/C=C\CCC(=O)O [RvD1, resolvin D1, reference compound]
Estimated PMNs (peritoneal lavage cells; 3 h post-zymosan, 0.1 μg/mouse): 5723.25 10^3/ml | Granulocytes Counted (100 cells) (peritoneal lavage cells; 3 h post-zymosan, 0.1 μg/mouse): 89.8 | Mononuclear Counted (100 cells) (peritoneal lavage cells; 3 h post-zymosan, 0.1 μg/mouse): 10.8 | Nucleated Cells (peritoneal lavage cells; 3 h post-zymosan, 0.1 μg/mouse): 6375.00 10^3/ml | Estimated PMNs (peritoneal lavage cells; 3 h post-zymosan, 1 μg/mouse): 6685.13 10^3/ml | Granulocytes Counted (100 cells) (peritoneal lavage cells; 3 h post-zymosan, 1 μg/mouse): 96.3 | Mononuclear Counted (100 cells) (peritoneal lavage cells; 3 h post-zymosan, 1 μg/mouse): 3.8 | Nucleated Cells (peritoneal lavage cells; 3 h post-zymosan, 1 μg/mouse): 6232.50 10^3/ml | Estimated PMNs (peritoneal lavage cells; 24 h post-zymosan, 1 μg/mouse): 11496.23 10^3/ml | Granulocytes Counted (100 cells) (peritoneal lavage cells; 24 h post-zymosan, 1 μg/mouse): 86.6 | Mononuclear Counted (100 cells) (peritoneal lavage cells; 24 h post-zymosan, 1 μg/mouse): 13.4 | Nucleated Cells (peritoneal lavage cells; 24 h post-zymosan, 1 μg/mouse): 13267.50 10^3/ml

Reference: patent US20210401798A1, “LIPOXIN A4 ANALOGS AND USES THEREOF” (The Brigham and Women's Hospital, Inc., priority 2018, published 2021)
